For one experiment, the target named is human Gal-1 (hGal-1) (Homo sapiens, UniProt P09382). In words: Competitive binding assay: binding of biotinylated hGal-1 to microplate-adsorbed asialofetuin (ASF). To be noted: Activities on hGal-1; mean values of several measurements. Put shortly: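 Compounds diluted in DMSO competed with biotinylated hGal-3 or hGal-1 (300-1000 ng/mL) for binding to plate-adsorbed asialofetuin for 3 h at 4° C. Bound galectin was detected with streptavidin-peroxidase (80 ng/mL, 1 h, 4° C) and ABTS substrate; IC50 reported as mean of several measurements.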

The target in another experiment is human Gal-3 (hGal-3) (Homo sapiens (Human), UniProt P17931). In words: Competitive binding assay: binding of biotinylated hGal-3 to microplate-adsorbed asialofetuin (ASF). To be noted: Activity on hGal-3; mean values of several measurements. Put shortly:
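Biotin-hGal-3/hGal-1 300-1000 ng/mL + cpd (DMSO dilutions) on ASF-coated plate, 3 h 4° C; wash; SA-HRP 80 ng/mL 1 h 4° C; wash; ABTS. IC50 = mean of several runs. hGal-1 preferably Cys→Ser (all six) mutant.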

Each structure is given as a SMILES string.

Sequence of human Gal-3 (hGal-3) (P17931 whole entry): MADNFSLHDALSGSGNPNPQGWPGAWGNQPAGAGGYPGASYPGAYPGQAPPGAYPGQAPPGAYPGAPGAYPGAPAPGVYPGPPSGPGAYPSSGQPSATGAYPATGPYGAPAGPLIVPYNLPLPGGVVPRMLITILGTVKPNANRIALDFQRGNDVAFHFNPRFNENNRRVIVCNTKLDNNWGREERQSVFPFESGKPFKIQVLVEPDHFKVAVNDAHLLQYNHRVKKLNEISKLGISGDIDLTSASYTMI
Sequence of human Gal-1 (hGal-1) (P09382 2-135 limits assumed): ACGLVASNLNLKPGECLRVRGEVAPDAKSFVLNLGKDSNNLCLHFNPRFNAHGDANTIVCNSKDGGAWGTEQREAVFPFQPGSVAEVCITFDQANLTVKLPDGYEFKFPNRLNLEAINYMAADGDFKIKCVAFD

Turning to `CC(C)(C)OC(=O)N1CCC(c2cc(C[C@H]3O[C@H](CO)[C@H](O)[C@H](n4cc(-c5cc(F)c(F)c(F)c5)nn4)[C@H]3OCC(F)F)no2)CC1` [Example 2.25, tert-butyl 4-(3-(((2R,3R,4S,5R,6R)-3-(2,2-difluoroethoxy)-5-hydroxy-6-(hydroxymethyl)-4-(4-(3,4,5-trifluorophenyl)-1H-1,2,3-triazol-1-yl)tetrahydro-2H-pyran-2-yl)methyl)issoxazole-5-yl)piperidine-1-carboxylate], the IC50 on human Gal-1 (hGal-1) came out at 1280 nM; at human Gal-3 (hGal-3), 170 nM.

For the origin of these results see patent publication US12319672B2, “Alpha-D-galactopyranoside derivatives” (Idorsia Pharmaceuticals Ltd, priority 2019, dated 2025).
